Consider four compounds from paper PMC6151660 (Molecules : A Journal of Synthetic Chemistry and Natural …, 2017).

In series [1] the test system is M. tuberculosis H37RvMA pMSP12:GFP. As to the kind of experiment: microbe, parasite or virus in culture. It is filed as cell-based. The following applies: Mycobacterium tuberculosis.
Series [2] deals with T1, BSA (Bos taurus, UniProt P02769).
T1 construct: purchased Sigma Aldrich (Kempton Park, South Africa)
Description: Bovine serum albumin binding assay (fluorescence quenching). As to conditions: BSA 1.00 × 10^−5 mol L^−1, 22 °C, ex 295 nm. An excerpt:
The mechanism of the fluorescent quenching of CM14 and CM15 to BSA is described using the Stern-Volmer equation:F0/F = 1 + ksv[Q] = 1 + kq τ0[Q] where F0 and F are the fluorescence intensities before and after the addition of the quencher, respectively; ksv is the dynamic quenching constant; kq is the quenching rate constant; [Q] is the concentration of quencher; τ0 is the average lifetime of the molecule without quencher and its value is considered to be 10^−8 s. The plots show a good linear relationship within the investigated concentrations of CM14 and CM15.
The interaction between coumarin derivatives (CM14 and CM15) and BSA were measured by fluorescence spectroscopy. BSA (≥98%) was obtained from Sigma Aldrich (Kempton Park, South Africa) and dissolved in a Tris–HCl (0.10 mol L^−1, pH = 7.4) buffer to form the BSA solution with a concentration of 1.00 × 10^−5 mol L^−1. A Tris–HCl buffer (0.10 mol L^−1, pH = 7.4) containing 0.10 mol L^−1 NaCl was selected to keep the pH value constant and to maintain the ionic strength of the solution. CM14 and CM15 stock solution (1.00 × 10^−3 mol L^−1) was prepared in MeOH. […] Fluorescence spectra were recorded on a Synergy Mx fluorescence plate reader (BioTek, Winooski, VT, USA). […] Fluorescence spectra were measured in the range of 315–500 nm at the excitation wavelength of 295 nm. […]

Series [3] has as its system electric eel AChE. On the set-up: method as in Joubert et al., 2017 [23]. As to conditions: ref Joubert et al., 2017 [23]; cited from earlier work.
Series [4] relates to M. tuberculosis H37Rv:pCHERRY3. Description: microbe, parasite or virus in culture. In kind it is cell-based. The following applies: Mycobacterium tuberculosis.
The nature of series [5]: Chinese hamster ovary cell cytotoxicity MTT assay. The following applies: CHO cells. As for the experimental part: Cytotoxicity was evaluated on CHO cells utilizing a standard 3-[4,5-dimethylthiazol-2-yl]-2,5-diphenyl tetrazolium bromide (MTT) assay. The MTT is a yellow tetrazolium salt that is reduced to purple formazan in the presence of living cells. This reduction reaction was used to measure growth and chemosensitivity. The test samples were tested in triplicate on one occasion. Cells were seeded in microtiter plates at a density of 10^5 cells/mL and incubated for 24 h prior to exposure. The test samples were prepared to a 20 mg/mL stock solution in 10% methanol or 10% DMSO and were tested as a suspension if not properly dissolved. Test compounds were stored at −20 °C until use, and administered in volumes of 100 µL to the plated cells. Emetine was used as the reference drug in all experiments. […] Plates were developed after 44 h of exposure to the drug by the addition of a solution of MTT. After four hours, further incubation at 37 °C the supernatant was removed from the cells via suction and DMSO was added to each well to dissolve the reduced dye crystals. […] The amount of formazan produced in wells containing untreated cells only and growth medium only represent 100% survival and 0% survival respectively, and the amount in each treatment well was converted to a survival percentage relative to these two extremes. The IC50 values were obtained from full dose-response curves, using a non-linear dose-response curve fitting analysis via GraphPad Prism v.4 software.

Series [6] in a line: SH-SY5Y cytotoxicity MTT assay. The following applies: human, SH-SY5Y neuroblastoma cells, MTT, read-out: CC 50% SH-SY5Y (range where 50% cell toxicity will be observed). It is filed as cell-based, human. As for the experimental part:
(§1) The human neuroblastoma cell line SH-SY5Y was generously donated by our collaborator at the Division of Molecular Biology and Human Biology, Stellenbosch University, Tygerberg, Cape Town. Cells were cultured in monolayer using Dulbecco Modified Eagles Medium (DMEM, Gibco, Life Technologies Ltd. Carlsbad, CA, USA) supplemented with 10% fetal bovine serum (FBS, Gibco, Life Technologies Ltd.) and 1% 100 U/mL penicillin and 100 μg/mL streptomycin (Lonza Group Ltd., Basel, Switzerland). Cells were grown at 37 °C, in a humidified atmosphere at 5% CO2. Media were replaced every two to three days and cells were sub-cultured by splitting with trypsin (Lonza Group Ltd.).
(§2) The standard MTT assay which measures cell metabolic activity was used to determine cytotoxicity of CM14, CM15 and CM9 as described by Mosmann. Briefly, SH-SY5Y cells were plated in flat bottom 96 well plates in growth medium as stated in Section 3.7.1 at a density of 7500 cells/well. Cells were allowed to adhere to the plate surface for 24 h and used media were replaced with fresh media containing test compounds at 10 µM, 50 µM and 100 µM. Vehicle control cells were treated with DMSO (solvent for dissolving test compounds) at a concentration similar to the amount contained in the highest concentration of test compounds. After 48 h, 10 µL of MTT solution (5 mg/mL) was added to each well and incubated for 4 h and the purple formazan formed was solubilized with 100 µL DMSO and plates were read spectrophotometrically to determine absorbance at 570 nm using a BMG Labtech POLARStar Omega multimodal plate reader.

In series [7] the test system is SH-SY5Y cells. Description: SH-SY5Y cytotoxicity MTT assay. As to conditions: 48 h. It is filed as cell-based, human. As for the experimental part:
as §1, §2

Series [8] relates to Mycobacterium tuberculosis H37Rv. As to the kind of experiment: microbe, parasite or virus in culture. In kind it is cell-based. The following applies: 120 h, day 5, read-out: % M. tuberculosis Growth, Day 5; for activity at 1 µM: 1 µM compound; for activity at 50 µM: 50 µM compound; for activity at 100 µM: 100 µM compound.
Series [9] deals with equine butyrylcholinesterase (BuChE). On the set-up: method as in Joubert et al., 2017 [23]. As to conditions: ref Joubert et al., 2017 [23]; cited from earlier work.
The subject of series [10] is SH-SY5Y cells. Description: MPP+-induced cytotoxicity in SH-SY5Y cells (neuroprotection). The following applies: 1 µM compound, 1000 μM MPP+ for 48 h, untreated control 100%.
In series [11] the test system is M. tuberculosis. The following applies: cited from earlier work.
Series [12] relates to M. tuberculosis, H37Rv. As to conditions: cited from earlier work.

Values after ≈ are worked out from the molar mass of the structure shown.

T1 sequence (P02769 25-607): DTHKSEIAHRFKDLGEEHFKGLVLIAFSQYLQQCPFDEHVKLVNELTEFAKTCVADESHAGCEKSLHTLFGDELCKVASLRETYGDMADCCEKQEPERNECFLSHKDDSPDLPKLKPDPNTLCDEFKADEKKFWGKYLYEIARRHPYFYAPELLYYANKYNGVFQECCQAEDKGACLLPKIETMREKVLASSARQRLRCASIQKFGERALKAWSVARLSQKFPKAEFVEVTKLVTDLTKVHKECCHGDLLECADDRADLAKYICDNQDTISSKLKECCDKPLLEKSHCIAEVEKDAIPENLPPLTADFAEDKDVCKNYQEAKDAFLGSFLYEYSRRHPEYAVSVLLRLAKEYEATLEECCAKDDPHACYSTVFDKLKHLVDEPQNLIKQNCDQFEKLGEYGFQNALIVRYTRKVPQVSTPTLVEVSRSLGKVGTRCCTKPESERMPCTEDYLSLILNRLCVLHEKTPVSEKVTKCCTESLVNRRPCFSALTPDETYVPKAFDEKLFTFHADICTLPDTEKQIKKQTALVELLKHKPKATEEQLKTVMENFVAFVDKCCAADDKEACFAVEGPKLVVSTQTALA

In series [1], `Cc1c(C#N)c(=O)oc2cc(OCCN3CCN(Cc4ccc(Br)cc4)CC3)ccc12` [CM14] yielded an MIC90 of 16.7 µM (≈ 8.06 µg/mL) and an MIC99 of 28 µM (≈ 13.5 µg/mL). For the same compound, the “ksv (dynamic quenching constant)” value in series [2] amounted to 380000 mol/L. For the same compound, the IC50 in series [3] was 38.5 µM. In series [4], this compound showed an MIC90 of 45.2 µM (≈ 21.8 µg/mL) and an MIC99 of 54.5 µM (≈ 26.3 µg/mL). The compound further had a CC50 at 44 h in series [5] of 41.2 µM. Further, the CC50 at 48 h in series [6] fell in the range of 50 to 100 µM. The “effect on viability of SH-SY5Y cells” value in series [7] (10 µM) is given as “did not significantly affect”. In series [7] (50 µM and 100 µM), the “effect on viability of SH-SY5Y cells” value is listed as “significantly (p < 0.001) affected”. Moreover, in series [8], the activity at 1 µM worked out at 99.5%, the activity at 50 µM turned out to be 4.4% and the activity at 100 µM worked out at 4.44%. The IC50 in series [9] was 13.3 µM. In addition, the “cell survival restored after MPP+ exposure” value in series [10] worked out at 101.2 ± 6.00%.

Turning to `O=c1cc(C(F)(F)F)c2ccc(OCCN3CCN(Cc4ccc(Br)cc4)CC3)cc2o1` [CM15], in series [1], the MIC90 was 3.2 µM (≈ 1.64 µg/mL) and the MIC99 came to 8.31 µM (≈ 4.25 µg/mL). For the same compound, the “ksv (dynamic quenching constant)” value in series [2] came to 488000 mol/L. Moreover, in series [3], the 50% inhibitory concentration (IC50) is more than 100 µM. In addition, in series [4], the MIC90 came out at 43.8 µM (≈ 22.4 µg/mL) and the MIC99 came to 57.2 µM (≈ 29.2 µg/mL). The CC50 at 44 h in series [5] was 26.3 µM. The CC50 at 48 h in [6] was in the range of 10 to 50 µM. In addition, the “effect on viability of SH-SY5Y cells” value in series [7] (10 µM) was “did not significantly affect”. Also, the “effect on viability of SH-SY5Y cells” value in [7] (50 µM and 100 µM) was “significantly (p < 0.001) affected”. Besides, in [8], the activity at 1 µM is 107%, the activity at 50 µM stood at 6.68% and the activity at 100 µM was 4.88%. Further, in series [9], the IC50 was more than 100 µM. Further, the “cell survival restored after MPP+ exposure” value in series [10] is on record as 81.05 ± 6.83%.

As for `COc1ccc2cc(-n3cc(COc4nc(-c5ccccn5)sc4C(N)=O)nn3)c(=O)oc2c1` [Compound 3], the MIC in series [11] was 6.5 µM (≈ 3.1 µg/mL).

On to `CO[C@@H]1[C@@H](OC(N)=O)[C@@H](O)[C@H](Oc2ccc3c(O)c(NC(=O)c4ccc(O)c(CC=C(C)C)c4)c(=O)oc3c2C)OC1(C)C` [Novobiocin], for which the MIC result in series [12] is reported as “approximately 6.5 µM”.
